In one assay the target is alpha1 -adrenoceptors. Put plainly: [^3 H]-prazosin binding assay (affinity for alpha1-adrenoceptors). The following applies: rat brain membranes, 0.2 nM [^3 H]-prazosin, 60 minutes at 25°. As for the experimental part: The [^3 H]-prazosin binding assay was carried out according to the method described by Timmermans, P. B. M. W. M., Schoop, A. M. C., and Van Zwieten, P. A.: Biochem Pharmacol., 31, 899-905, 1982 (1). The reaction mixture contained partially purified rat brain membranes (source of alpha1 -adrenoceptors), 0.2 nM [^3 H]-prazosin with or without potential displacer in Tris buffer. The mixture was incubated for 60 minutes at 25° and subsequently terminated by rapid filtration through glass fiber-filter. Receptor-bound [^3 H]-prazosin trapped in the filter was quantitated by scintillation counting. The inhibitory concentration (IC50) of potential displacer which gives 50% displacement of the total specifically bound [^3 H]-prazosin is presented as a measure of the affinity of such compound for the alpha1 -adrenoceptor.

The test system of the next assay is guinea pig left atria. Put plainly: Positive inotropic effect in guinea pig left atria. To be noted: 37°. As for the experimental part:
Guinea pigs are killed by cervical dislocation. The left atria are removed and mounted at 1 gm resting tension in tissue baths containing oxygenated Krebs bicarbonate solution which is kept at 37°. The left atria are electrically paced at 2Hz with square wave pulses of 1 msec duration. The voltage is set at 1.5× threshold level.
After a one hour equilibration period, control values for developed tension (DT, gm) are recorded. Test compounds are then added to the baths, in a cumulative manner to a maximum concentration of 10^-4, to obtain a concentration-response curve. Treatment values of DT are obtained after the rug effect has reached a plateau and the exposure time for each concentration is 5-8 minutes. Percent change of the treatment value from the control value is calculated at each concentration of the test compound.

The target of another assay is T1, Ca^2 + channels (Rattus norvegicus, UniProt P22002).
T1 construct: rat cardiac microsomes (source of Ca^2 + channels); from tissue; host or cells: rat cardiac microsomes
Put plainly: [^3 H]-Nitrendipine binding assay (affinity for calcium channels). The following applies: rat cardiac microsomes, 0.5 nM [^3 H]-nitrendipine, 60 minutes at 25°. As for the experimental part:
[^3 H]-Nitrendipine binding assay was carried out according to the method described by G. T. Bolger, et al., Biochem. Biophys. Res. Comm., 104, 1604-1609, 1982 (1). The reaction mixture contained rat cardiac microsomes (source of Ca^2 + channels), 0.5 nM [^3 H]-nitrendipinewith or without potential displacer in Tris buffer. The mixture was incubated for 60 minutes at 25° and subsequently terminated by rapid filtration through a glass fiber-filter. Membrane-bound [^3 H]-nitrendipine trapped in the filter was quantitated by scintillation counting. The inhibitory concentration (IC50) of potential displacer which gives 50% displacement of the total specifically bound [^3 H]-nitrendipine is presented as a measure of the affinity of such compound for the Ca^2 + channel.

One may read the IC50 as the midpoint of a concentration-inhibition curve.

T1 sequence (P22002 whole entry, other chains not shown): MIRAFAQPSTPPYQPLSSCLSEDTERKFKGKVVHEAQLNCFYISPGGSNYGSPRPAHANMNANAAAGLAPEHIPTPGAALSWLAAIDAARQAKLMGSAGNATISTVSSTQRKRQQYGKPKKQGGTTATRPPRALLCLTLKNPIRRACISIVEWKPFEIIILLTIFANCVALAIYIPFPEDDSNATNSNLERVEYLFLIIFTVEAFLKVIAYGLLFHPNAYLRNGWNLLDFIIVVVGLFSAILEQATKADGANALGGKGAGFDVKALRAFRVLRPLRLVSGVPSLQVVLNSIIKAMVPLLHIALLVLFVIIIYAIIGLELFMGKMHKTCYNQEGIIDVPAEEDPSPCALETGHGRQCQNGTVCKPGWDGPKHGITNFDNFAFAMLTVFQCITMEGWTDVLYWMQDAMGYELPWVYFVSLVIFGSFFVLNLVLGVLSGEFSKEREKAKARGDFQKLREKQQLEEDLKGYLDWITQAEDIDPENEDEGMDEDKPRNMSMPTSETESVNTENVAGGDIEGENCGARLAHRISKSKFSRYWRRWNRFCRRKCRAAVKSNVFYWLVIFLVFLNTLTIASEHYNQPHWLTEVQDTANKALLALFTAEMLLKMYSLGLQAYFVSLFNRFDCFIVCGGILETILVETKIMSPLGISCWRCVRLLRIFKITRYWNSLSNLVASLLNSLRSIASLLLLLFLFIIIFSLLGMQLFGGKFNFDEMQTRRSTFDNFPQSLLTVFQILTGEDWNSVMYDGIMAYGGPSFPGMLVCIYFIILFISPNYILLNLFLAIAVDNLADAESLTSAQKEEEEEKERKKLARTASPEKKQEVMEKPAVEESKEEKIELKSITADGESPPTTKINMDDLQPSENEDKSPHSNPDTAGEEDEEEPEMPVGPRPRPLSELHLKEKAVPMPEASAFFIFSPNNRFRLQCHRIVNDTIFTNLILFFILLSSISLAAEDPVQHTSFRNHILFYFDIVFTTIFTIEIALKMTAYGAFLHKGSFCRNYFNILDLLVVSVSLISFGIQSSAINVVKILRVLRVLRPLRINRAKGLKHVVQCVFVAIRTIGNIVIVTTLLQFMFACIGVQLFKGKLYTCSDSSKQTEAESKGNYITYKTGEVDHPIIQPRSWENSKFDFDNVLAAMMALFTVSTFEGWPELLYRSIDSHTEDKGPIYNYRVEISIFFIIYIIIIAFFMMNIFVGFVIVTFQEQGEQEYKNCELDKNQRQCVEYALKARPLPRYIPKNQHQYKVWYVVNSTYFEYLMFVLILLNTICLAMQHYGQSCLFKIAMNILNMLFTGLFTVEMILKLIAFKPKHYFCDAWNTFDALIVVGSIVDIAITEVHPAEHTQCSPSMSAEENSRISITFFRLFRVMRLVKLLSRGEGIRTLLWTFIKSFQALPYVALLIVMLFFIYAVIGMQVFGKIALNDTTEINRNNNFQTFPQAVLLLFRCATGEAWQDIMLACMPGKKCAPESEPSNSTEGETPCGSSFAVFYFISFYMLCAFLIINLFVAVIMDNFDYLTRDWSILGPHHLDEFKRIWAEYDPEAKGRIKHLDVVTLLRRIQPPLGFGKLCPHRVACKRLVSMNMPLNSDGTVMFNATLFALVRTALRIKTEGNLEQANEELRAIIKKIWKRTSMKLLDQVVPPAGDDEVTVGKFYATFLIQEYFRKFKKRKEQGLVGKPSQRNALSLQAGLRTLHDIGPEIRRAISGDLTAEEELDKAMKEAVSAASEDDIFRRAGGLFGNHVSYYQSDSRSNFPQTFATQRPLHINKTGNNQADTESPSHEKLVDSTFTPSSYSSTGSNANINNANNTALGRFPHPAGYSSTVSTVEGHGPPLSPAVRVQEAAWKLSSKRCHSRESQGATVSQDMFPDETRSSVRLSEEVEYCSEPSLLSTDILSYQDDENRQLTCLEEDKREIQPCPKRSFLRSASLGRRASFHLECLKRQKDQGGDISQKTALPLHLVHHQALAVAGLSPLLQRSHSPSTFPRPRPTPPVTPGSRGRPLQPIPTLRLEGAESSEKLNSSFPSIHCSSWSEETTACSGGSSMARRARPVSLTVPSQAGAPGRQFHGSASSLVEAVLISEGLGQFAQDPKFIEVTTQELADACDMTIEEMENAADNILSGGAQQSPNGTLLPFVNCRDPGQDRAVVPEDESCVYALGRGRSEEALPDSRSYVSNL
T1 sequence (P54290 25-944 partner limits assumed, other chains not shown): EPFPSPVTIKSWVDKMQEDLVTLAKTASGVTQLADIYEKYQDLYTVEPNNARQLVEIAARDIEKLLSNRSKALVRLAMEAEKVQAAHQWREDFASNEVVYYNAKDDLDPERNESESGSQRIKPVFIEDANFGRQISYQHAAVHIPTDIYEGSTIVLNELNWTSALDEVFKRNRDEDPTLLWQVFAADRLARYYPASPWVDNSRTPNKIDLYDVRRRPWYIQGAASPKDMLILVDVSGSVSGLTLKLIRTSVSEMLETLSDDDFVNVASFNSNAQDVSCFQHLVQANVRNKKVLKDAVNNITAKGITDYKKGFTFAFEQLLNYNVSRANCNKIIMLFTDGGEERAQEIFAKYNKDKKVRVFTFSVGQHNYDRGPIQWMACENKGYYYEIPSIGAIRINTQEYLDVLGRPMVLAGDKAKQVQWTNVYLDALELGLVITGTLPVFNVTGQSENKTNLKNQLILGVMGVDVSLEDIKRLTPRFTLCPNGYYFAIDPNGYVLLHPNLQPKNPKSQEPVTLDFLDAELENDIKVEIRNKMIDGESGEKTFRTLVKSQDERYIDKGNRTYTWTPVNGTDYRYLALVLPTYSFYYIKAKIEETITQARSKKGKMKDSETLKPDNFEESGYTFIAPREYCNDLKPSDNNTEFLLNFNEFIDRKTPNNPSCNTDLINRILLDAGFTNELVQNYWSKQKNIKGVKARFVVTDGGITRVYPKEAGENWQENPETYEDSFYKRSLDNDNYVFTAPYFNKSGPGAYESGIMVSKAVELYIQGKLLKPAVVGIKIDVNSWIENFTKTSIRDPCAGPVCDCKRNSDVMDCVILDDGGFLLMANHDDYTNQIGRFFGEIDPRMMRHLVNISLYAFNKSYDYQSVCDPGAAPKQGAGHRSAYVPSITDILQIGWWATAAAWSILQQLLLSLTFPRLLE
T1 sequence (P54290 945-1091 partner limits assumed, other chains not shown): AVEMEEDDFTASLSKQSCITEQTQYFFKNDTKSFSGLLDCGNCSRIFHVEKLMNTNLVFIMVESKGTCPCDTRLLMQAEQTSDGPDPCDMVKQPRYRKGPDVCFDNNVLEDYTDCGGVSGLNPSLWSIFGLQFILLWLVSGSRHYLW

In turn, `COc1ccccc1N1CCN(CCOC(=O)C2=C(C)NC(C)=C([N+](=O)[O-])C2c2cccc(C(F)(F)F)c2)CC1` (stereo not shown) [Example 1, 1,4-Dihydro-2,6-dimethyl-5-nitro-4-[3-(trifluoromethyl)phenyl]-[2-[4-(2-methoxyphenyl)-1-piperazinyl]ethyl]ester-3-pyridinecarboxylic acid] registered an IC50 at alpha1 -adrenoceptors of 960 nM. In addition, the EC50 with guinea pig left atria (left atria paced at 2Hz, cumulative addition to maximum 10^-4, read-out: EC50 (concentration that increases DT by 50% above the control DT)) was 27000 nM. For the same compound, the “Intrinsic Activity (ratio of the maximum effect of the test compound to that of Bay K 8644)” value in the assay with guinea pig left atria (relative to Bay K 8644, left atria paced at 2Hz) amounted to 30%.
As for `COc1ccccc1N1CCN(CCCCOC(=O)C2=C(C)NC(C)=C([N+](=O)[O-])C2c2cccc(C(F)(F)F)c2)CC1` (stereo not shown) [Example 57], the IC50 at Ca^2 + channels was 990 nM; at alpha1 -adrenoceptors it was 970 nM.
The corresponding values for `COC(=O)C1=C(C)NC(C)=C([N+](=O)[O-])C1c1cc(OCCN2CCN(c3ccccc3OC)CC2)ccc1[N+](=O)[O-]` (stereo not shown) [Example 68] are 16000 nM and 590 nM.
The matching figures for `COC(=O)C1=C(C)NC(C)=C([N+](=O)[O-])C1c1ccccc1OCCCN1CCN(c2ccccc2C(F)(F)F)CC1` (stereo not shown) [Example 104]: 200 nM and 8600 nM.
The corresponding values for `COc1ccccc1N1CCN(CCCCOc2ccccc2C2C(C(=O)Nc3ccccc3)=C(C)NC(C)=C2[N+](=O)[O-])CC1` (stereo not shown) [Example 115] are 110000 nM and 130 nM.
`COC(=O)C1=C(C)NC(C)=C([N+](=O)[O-])C1c1ccccc1OCCCCN1CCN(c2ccccc2C)CC1` (stereo not shown) [Example 118]: the IC50 on Ca^2 + channels is 540 nM; on alpha1 -adrenoceptors, 850 nM.
The corresponding values for `COC(=O)C1=C(C)NC(C)=C([N+](=O)[O-])C1c1ccccc1OCC=CCN1CCN(c2ccccc2OC)CC1` (stereo not shown) [Example 119] are 800 nM and 490 nM.
`COC(=O)C1=C(C)NC(C)=C([N+](=O)[O-])C1c1cccc(OC)c1OCC=CCN1CCN(c2ncccn2)CC1` (stereo not shown) [Example 121]: the IC50 came to 3000 nM on Ca^2 + channels and 8200 nM at alpha1 -adrenoceptors.
Turning to `COc1ccccc1N1CCN(CCCOc2cccc(C3C(C(=O)Nc4ccccc4)=C(C)NC(C)=C3[N+](=O)[O-])c2)CC1` (stereo not shown) [Example 122], the IC50 on Ca^2 + channels was more than 10000 nM; on alpha1 -adrenoceptors, 230 nM.
For the compound `COC(=O)C1=C(C)NC(C)=C([N+](=O)[O-])C1c1cccc(OCCCN2CCN(c3ncccn3)CC2)c1` (stereo not shown) [Example 124], the IC50 is 18000 nM at Ca^2 + channels and 1200 nM on alpha1 -adrenoceptors.
The corresponding values for `CCOC(=O)C1=C(C)NC(C)=C([N+](=O)[O-])C1c1cccc(OCCCN2CCN(c3ccccn3)CC2)c1` (stereo not shown) [Example 126] are 5000 nM and 290 nM.
The corresponding values for `COC(=O)C1=C(C)NC(C)=C([N+](=O)[O-])C1c1cccc(OCC#CCN2CCN(c3ccccc3OC)CC2)c1` (stereo not shown) [Example 127] are 2000 nM and 2700 nM.
The corresponding values for `COC(=O)C1=C(C)NC(C)=C([N+](=O)[O-])C1c1cccc(OCCCN2CCN(c3ccccn3)CC2)c1` (stereo not shown) [Example 128] are 5700 nM and 100 nM.
For the compound `COC(=O)C1=C(C)NC(C)=C([N+](=O)[O-])C1c1cccc(OCCCN2CCN(c3ccccc3C)CC2)c1` (stereo not shown) [Example 131], the IC50 at Ca^2 + channels was found to be 3600 nM; on alpha1 -adrenoceptors it was 150 nM.
For `COC(=O)C1=C(C)NC(C)=C([N+](=O)[O-])C1c1cccc(OCCCN2CCN(c3ccccc3Cl)CC2)c1` (stereo not shown) [Example 132], the IC50 on Ca^2 + channels came to 2300 nM; on alpha1 -adrenoceptors, 130 nM.
Take `COc1ccccc1N1CCN(CCCCOc2ccccc2C2C(C(=O)OC(C)C)=C(C)NC(C)=C2[N+](=O)[O-])CC1` (stereo not shown) [Example 133]: the IC50 on Ca^2 + channels was determined as 420 nM; at alpha1 -adrenoceptors, 750 nM.
The matching figures for `COc1ccccc1N1CCN(CCCOc2ccccc2C2C(C(=O)OC(C)C)=C(C)NC(C)=C2[N+](=O)[O-])CC1` (stereo not shown) [Example 134]: 8400 nM and 340 nM.
Regarding `COC(=O)C1=C(C)NC(C)=C([N+](=O)[O-])C1c1ccc(OCCCN2CCN(c3ccccc3OC)CC2)cc1` (stereo not shown) [Example 135], the IC50 on Ca^2 + channels turned out to be 6700 nM; at alpha1 -adrenoceptors, 430 nM.
The corresponding values for `COC(=O)C1=C(C)NC(C)=C([N+](=O)[O-])C1c1cccc(OCC2OC2CN2CCN(c3ccccc3OC)CC2)c1` (stereo not shown) [Example 136] are more than 10000 nM and more than 10000 nM.
The matching figures for `COC(=O)C1=C(C)NC(C)=C([N+](=O)[O-])C1c1ccc(OCCCN2CCN(c3ccccc3OC)CC2)c([N+](=O)[O-])c1` (stereo not shown) [Example 137]: 6100 nM and 440 nM.
The corresponding values for `COC(=O)C1=C(C)NC(C)=C([N+](=O)[O-])C1c1cc([N+](=O)[O-])ccc1OCCCCN1CCN(c2ccccc2OC)CC1` (stereo not shown) [Example 138] are 220 nM and 280 nM.
Regarding `COC(=O)C1=C(C)NC(C)=C([N+](=O)[O-])C1c1cc(Cl)cc(Cl)c1OCCCCCN1CCN(c2ccccc2OC)CC1` (stereo not shown) [Example 141], the IC50 at Ca^2 + channels stood at 630 nM; on alpha1 -adrenoceptors, 830 nM.
The matching figures for `COC(=O)C1=C(C)NC(C)=C([N+](=O)[O-])C1c1cc(Cl)ccc1OCCCCN1CCN(c2ccccc2OC)CC1` (stereo not shown) [Example 143]: 190 nM and 350 nM.
The corresponding values for `C=CCc1cccc(C2C(C(=O)OC)=C(C)NC(C)=C2[N+](=O)[O-])c1OCCCCN1CCN(c2ccccc2OC)CC1` (stereo not shown) [Example 144] are 1300 nM and 310 nM.
The matching figures for `COC(=O)C1=C(C)NC(C)=C([N+](=O)[O-])C1c1cc(Cl)ccc1OCCCCCN1CCN(c2ccccc2OC)CC1` (stereo not shown) [Example 145]: 180 nM and 630 nM.
With `COc1ccccc1N1CCN(CCCCOc2ccccc2C2C(C(=O)OC(C)(C)C)=C(C)NC(C)=C2[N+](=O)[O-])CC1` (stereo not shown) [Example 146], the IC50 came to 470 nM on Ca^2 + channels and 990 nM on alpha1 -adrenoceptors.
The corresponding values for `COC(=O)C1=C(C)NC(C)=C([N+](=O)[O-])C1c1cccc(OCCCN2CCN(c3ccccc3OC)CC2)c1[N+](=O)[O-]` (stereo not shown) [Example 149] are 8900 nM and 290 nM.
The corresponding values for `COC(=O)C1=C(C)NC(C)=C([N+](=O)[O-])C1c1cccc(OCCCCN2CCN(c3ccccc3OC)CC2)c1[N+](=O)[O-]` (stereo not shown) [Example 150] are 4000 nM and 220 nM.
The matching figures for `COC(=O)C1=C(C)NC(C)=C([N+](=O)[O-])C1c1cccc(OCCCCCN2CCN(c3ccccc3OC)CC2)c1[N+](=O)[O-]` (stereo not shown) [Example 151]: 4700 nM and 200 nM.
Consider `COC(=O)C1=C(C)NC(C)=C([N+](=O)[O-])C1c1cc(OC)ccc1OCCCCN1CCN(c2ccccc2OC)CC1` (stereo not shown) [Example 152], for which the IC50 on Ca^2 + channels came out at 690 nM; on alpha1 -adrenoceptors it was 270 nM.
The corresponding values for `COC(=O)C1=C(C)NC(C)=C([N+](=O)[O-])C1c1cc(OC)ccc1OCCCCCN1CCN(c2ccccc2OC)CC1` (stereo not shown) [Example 153] are 880 nM and 120 nM.
The matching figures for `COC(=O)C1=C(C)NC(C)=C([N+](=O)[O-])C1c1ccccc1OCCN1CCN(c2ncccn2)CC1` (stereo not shown) [Example 154]: 1400 nM and 9300 nM.
The corresponding values for `COC(=O)C1=C(C)NC(C)=C([N+](=O)[O-])C1c1ccccc1OCCCCCN1CCN(c2ncccn2)CC1` (stereo not shown) [Example 155] are 250 nM and 2600 nM.

The values above are taken from patent US4868181A, “1,4-dihydropyridine derivatives with calcium agonist and alpha1 -antagonist activity” (E. I. Du Pont de Nemours and Company, priority 1987, dated 1989).
